Source: ChEMBL document CHEMBL1151191, “Rugulotrosins A and B: Two new antibacterial metabolites from an Australian isolate of a Penicillium sp” (J Nat Prod, 2004)

Assays:
Bacillus subtilis = test: Antibacterial activity against Bacillus subtilis ATCC 6633 after 24 hrs by agar-based microtiter plate assay; format: functional
Bacillus cereus = test: Antibacterial activity against Bacillus cereus ATCC 11778 after 24 hrs by agar-based microtiter plate assay; format: organism-based
Enterococcus faecalis = test: Antibacterial activity against Enterococcus faecalis ATCC 29212 after 24 hrs by agar-based microtiter plate assay; format: functional
Staphylococcus aureus = test: Antibacterial activity against Staphylococcus aureus ATCC 25923 after 24 hrs by agar-based microtiter plate assay; format: organism-based

| SMILES | LD99 (Bacillus subtilis) [µg/mL] | LD99 (Bacillus cereus) [µg/mL] | LD99 (Enterococcus faecalis) [µg/mL] | LD99 (Staphylococcus aureus) [µg/mL] |
| --- | --- | --- | --- | --- |
| COC(=O)[C@]12Oc3c(Br)c(C)c(-c4c(C)c(Br)c(O)c5c4O[C@@]4(C(=O)OC)C(=C(O)CC[C@@H]4O)C5=O)c(O)c3C(=O)C1=C(O)CC[C@@H]2O | 6.3 | – | – | – |
| COC(=O)[C@]12Oc3cc(C)c(-c4c(C)cc5c(c4O)C(=O)C4=C(O)CC[C@H](O)[C@@]4(C(=O)OC)O5)c(O)c3C(=O)C1=C(O)CC[C@@H]2O [RUGULOTROSIN A] | – | 3.1 | 1.6 | 200 |
| COC(=O)[C@]12Oc3cc(C)c(-c4c(C)cc(O)c5c4O[C@@]4(C(=O)OC)C(=C(O)CC[C@@H]4O)C5=O)c(O)c3C(=O)C1=C(O)CC[C@@H]2O [RUGULOTROSIN B] | 25 | – | – | – |
